{"source": "patent US20040253257A1", "about": "“Biological compositions and methods for treatment of liver cancer” (priority 2003, published 2004)", "key": {"[1]": {"system": "human liver cancer", "assay": "Swiss mouse model of human liver cancer, growth of tumors", "conditions": "31st day from tumor inoculation; 30 days treatment; yeast 0.3 ml oral once per day, CTX 30 mg/kg iv once a week", "source_text": "The animals were generally anaesthetized. […] Afterwards, the opening was sutured and the mice were put back into the cage.\n(§1) The mice injected with tumor cells were divided into 4 experimental groups of ten mice per group and one control group. The four experimental groups were triplicated (i.e., using a total of 120 mice in the experimental groups).\n(§2) The mice received the biological compositions, untreated yeast cells, CTX or saline on the same day as the tumor cells were transplanted. The mice in group CK2 also started receiving saline on the same day as the other four groups. The biological compositions, untreated yeast cells and saline were administered orally by a feeding tube and the CTX by intravenous injection for 30 consecutive days."}, "[2]": {"system": "human liver cancer", "conditions": "for Number of live animals remaining in the groups after 30 days of treatment: 30 mice per group", "description": "(§3) The survival time of mice after tumor injection and treatment was studied.\nThe biological composition comprising […] of activated and conditioned yeast cells of the strain Saccharomyces cerevisiae Hansen strain AS2.503 was prepared by the methods described in Section 5.1 and subsections therein.\nThe animals were prepared in a similar manner as described in Section 6.1.\nThe mice injected with tumor cells were divided into 4 experimental groups of ten mice per group and one control group. The four experimental groups were triplicated (i.e., using a total of 120 mice in the experimental groups). In group 2AY, the mice received 0.3 ml of the biological composition once per day. In group 2NY, the mice received 0.3 ml of the untreated yeast cells once per day. In group 2CTX, the mice were injected intravenously with 30 mg of cyclophosphamide (CTX) per kg body weight once a week for four weeks. In group 2CK1, the mice received 0.3 ml of physiological saline once per day.\nas §2, with “2CK2” for “CK2”, “days. The mice were observed over 6 months from the day of their inoculation and survival was recorded. The weight of the mice, the weight of the liver, and the weight of the tumor were determined by standard techniques.” for “days.”"}, "[3]": {"system": "Liver tumor H-22", "assay": "C3H mouse model of liver cancer (H-22), growth of tumors", "conditions": "31st day from tumor inoculation; 30 days treatment; yeast 0.3 ml oral once per day, CTX 30 mg/kg iv per day", "description": "(§4) The biological composition comprising 10^8 cells per ml of activated and conditioned yeast cells of the strain Saccharomyces cerevisiae Hansen strain AS2.503 was prepared by the methods described in Section 5.1 and subsections therein.\nas §1, §2"}, "[4]": {"system": "Liver tumor H-22", "conditions": "for Number of live animals remaining in the groups after 30 days of treatment: 30 mice per group", "description": "as §3, §4\nThe animals were prepared in a similar manner as described in Section 8.1.\nThe mice injected with tumor cells were divided into 4 experimental groups of […] per group and one control group. The four experimental groups were triplicated […]. In group 2AY, the mice received 0.3 ml of the biological composition once per day. In group 2NY, the mice received 0.3 ml of the untreated yeast cells once per day. In group 2CTX, the mice were injected intravenously with 30 mg of cyclophosphamide (CTX) per kg body weight per day. In group 2CK1, the mice received 0.3 ml of physiological saline once per day.\nThe mice received the biological compositions, untreated yeast cells, CTX or saline on the same day as the tumor cells were transplanted. The mice in group 2CK2 also started receiving saline on the same day as the other four groups. The biological compositions, untreated yeast cells and saline were administered orally by a feeding tube and the CTX by intravenous injection for 30 consecutive days. The mice were observed over 6 months from the day of their inoculation and survival was recorded."}, "[5]": {"conditions": "0 month after cessation of treatment"}, "[6]": {"conditions": "1 month after cessation of treatment"}, "[7]": {"conditions": "2 months after cessation of treatment"}, "[8]": {"conditions": "3 months after cessation of treatment"}, "[9]": {"conditions": "4 months after cessation of treatment"}, "[10]": {"conditions": "5 months after cessation of treatment"}, "[11]": {"conditions": "6 months after cessation of treatment"}, "[12]": {"conditions": "from injection of tumor cells, 30 days treatment"}, "[13]": {"conditions": "mice that survived, observed over 6 months"}}, "note": "Where two headings read alike, the source gives them in different places.", "data": [{"smiles": "O=P1(N(CCCl)CCCl)NCCCO1", "note": "(stereo not shown) [CTX, cyclophosphamide]", "values": [{"measurement": "mean weight of liver and standard deviation", "setting": "[1]", "result": "1,372 ± 8 mg"}, {"measurement": "mean weight of mice and standard deviation", "setting": "[1]", "result": "17 ± 0.9", "unit": "g"}, {"measurement": "mean weight of tumor nodules and standard deviation", "setting": "[1]", "result": "249 ± 9", "unit": "mg"}, {"measurement": "Number of live animals remaining in the groups after 30 days of treatment", "setting": "[2]; [5]", "result": 30}, {"measurement": "Number of live animals remaining in the groups after 30 days of treatment", "setting": "[2]; [6]", "result": 30}, {"measurement": "Number of live animals remaining in the groups after 30 days of treatment", "setting": "[2]; [7]", "result": 27}, {"measurement": "Number of live animals remaining in the groups after 30 days of treatment", "setting": "[2]; [8]", "result": 22}, {"measurement": "Number of live animals remaining in the groups after 30 days of treatment", "setting": "[2]; [9]", "result": 19}, {"measurement": "Number of live animals remaining in the groups after 30 days of treatment", "setting": "[2]; [10]", "result": 7}, {"measurement": "Number of live animals remaining in the groups after 30 days of treatment", "setting": "[2]; [11]", "result": 0}, {"measurement": "survival of mice bearing liver cancer cells", "setting": "[2]; [12]", "result": "all died after four months"}, {"measurement": "mean weight of liver and standard deviation", "setting": "[2]; [13]", "result": "all animals dead"}, {"measurement": "mean weight of mice and standard deviation", "setting": "[2]; [13]", "result": "all animals dead"}, {"measurement": "mean weight of tumor nodules and standard deviation", "setting": "[2]; [13]", "result": "all animals dead"}, {"measurement": "mean weight of liver and standard deviation", "setting": "[3]", "result": "1,351 ± 9 mg"}, {"measurement": "mean weight of mice and standard deviation", "setting": "[3]", "result": "18.8 ± 0.7", "unit": "g"}, {"measurement": "mean weight of tumor nodules and standard deviation", "setting": "[3]", "result": "253 ± 8", "unit": "mg"}, {"measurement": "Number of live animals remaining in the groups after 30 days of treatment", "setting": "[4]; [5]", "result": 30}, {"measurement": "Number of live animals remaining in the groups after 30 days of treatment", "setting": "[4]; [6]", "result": 27}, {"measurement": "Number of live animals remaining in the groups after 30 days of treatment", "setting": "[4]; [7]", "result": 24}, {"measurement": "Number of live animals remaining in the groups after 30 days of treatment", "setting": "[4]; [8]", "result": 19}, {"measurement": "Number of live animals remaining in the groups after 30 days of treatment", "setting": "[4]; [9]", "result": 11}, {"measurement": "Number of live animals remaining in the groups after 30 days of treatment", "setting": "[4]; [10]", "result": 3}, {"measurement": "Number of live animals remaining in the groups after 30 days of treatment", "setting": "[4]; [11]", "result": 0}, {"measurement": "survival of mice bearing liver cancer cells", "setting": "[4]; [12]", "result": "all died after four months"}, {"measurement": "mean weight of liver and standard deviation", "setting": "[4]; [13]", "result": "all animals dead"}, {"measurement": "mean weight of mice and standard deviation", "setting": "[4]; [13]", "result": "all animals dead"}, {"measurement": "mean weight of tumor nodules and standard deviation", "setting": "[4]; [13]", "result": "all animals dead"}]}]}
